Laboratory results reported in patent US20140303078A1, “MODULATION OF PANCREATIC BETA CELL PROLIFERATION” (President and Fellows of Harvard College, priority 2011, published 2014).
Like-named read-outs stand apart in the source and are kept apart here. Ends that are not written are not given here.

Columns and labels:
pancreatic beta cells [1] = test: S661 once daily in normal mice, beta cell replication by flow cytometry; assay type: in vivo, C57Bl/6 mice; conditions: S661 1 mg/kg s.c. once daily, 4 days
Procedure: FIG. 13 is a bar graph showing beta cell replication after repeated dosing of S661 in normal mice. Increased beta cell replication with S661 treatment is shown as a percentage of replication. Replication was analyzed by flow cytometry. The control in these experiments is a vehicle without S661. (*** p<0.001; Student's T-Test)
In another study, S661 was administered subcutaneously in vehicle to C57Bl/6 mice as once daily injections of 1 mg/kg bodyweight for a period of 4 days. In parallel BrdU was administered once daily at a dose of 100 mg/kg for the same period. At the fifth day the pancreas was removed and the replication of beta cell was measured by flow cytometry.

pancreatic beta cells [2] = test: S661 repeated dosing in diet-induced obesity (DIO) mice, BrdU immunohistochemistry; assay type: in vivo, C57Bl/6 mice (DIO); conditions: S661 3 times 1 mg/kg or 0.125 mg/kg s.c., 4 days
Procedure: Increased beta cell replication with S661 treatment is shown as percent replication; there was no effect on non-beta cell replication. […] Immunohistochemistry was performed to analyze replication and islet area. (* p<0.05; ** p<0.01; Student's T-Test)
C57Bl/6 mice were fed a high fat diet for 17 weeks. S661 was administered subcutaneously in vehicle to DIO mice at doses of 3 times 1 mg/kg or 0.125 mg/kg bodyweight for a period of 4 days. In parallel BrdU was administered once daily at a dose of 100 mg/kg for the same period. At the fifth day the pancreas was removed and fixed in PFA. Paraffin embedded sections were stained for insulin, DAPI and BrdU. The incorporation of BrdU in replicating cells was analyzed using an automated script on images generated on a Zeiss Axioimager Z2.

pancreatic beta cells [3] = test: S661 repeated dosing in normal mice, BrdU incorporation by immunohistochemistry; assay type: in vivo, C57Bl/6 mice; conditions: 4 days
Procedure: FIG. 12 is a bar graph showing beta cell replication after repeated dosing of S661 in the pancreas of normal mice. Increased replication is shown as a fold increase compared to vehicle rate. Replication was analyzed by immunohistochemistry. The control in these experiments is a vehicle without S661.
In a study, S661 was administered subcutaneously in vehicle to C57Bl/6 mice 3 times daily at the following doses 1 mg/kg; 0.5 mg/kg; 0.25 mg/kg or 0.125 mg/kg bodyweight for a period of 4 days. In parallel BrdU was administered once daily at a dose of 100 mg/kg for the same period. At the fifth day the pancreas was removed and fixed in PFA. Paraffin embedded sections were stained for insulin, DAPI and BrdU. The incorporation of BrdU in replicating beta cells was analyzed using an automated script on images generated on a Zeiss Axioimager Z2.

[4] = obese rats, previous reports; cited from earlier work
pancreatic beta cells [5] = test: S961 treatment of mice, beta cell replication (Ki67/insulin immunostaining of pancreas); assay type: in vivo; conditions: 0.125 to 1 μMol/Kg/week, vs vehicle
Text: The white arrows point to replicating beta cells. FIG. 1C is a bar graph showing Ki67+/insulin+% after treatment for 7 days with increasing doses (from 0.125 μMol/Kg/week to 1 μMol/Kg/week) of S961. […] The control in these experiments is vehicle without S961. To count the Ki67+/insulin+ percentage and the beta cell area/pancreas area, the whole pancreas was cryosectioned and immunostained, and the standard graph analysis tools such as Metamorph and Photoshop were used for the quantification.
As described herein, administration of a low dose of insulin receptor antagonist S961 to a mammal produces an increase in beta cell replication (FIG. 1). Following injection of S961, gene expression in liver, muscle, and fat was analyzed because these tissues are involved in carbohydrate storage and metabolism. Of particular interest as a result of this analysis was mouse gene EG624219.

TD26 (EG624219) mRNA = test: TD26 mRNA expression in tissues of mice treated with S961 for 7 days; assay type: in vivo; conditions: liver and fat
Text: Genes close to the diagonal line show similar expression values in treated and untreated liver. […] TD26 expression increases in the liver and fat upon S961 treatment. […] The presumptive signal peptide is included at the N-terminus. […] Hepa1-6 cells have been transfected with a plasmid carrying the gene for TD26 fused to a Myc-tag. The cells were stained with myc antibody.

[6] = Blood glucose levels after administration of S961; assay type: in vivo
Text: As used herein, low doses of S961 will typically be less than 1 μMol/Kg/week, preferably from 0.125 μMol/Kg/week to 0.5 μMol/Kg/week. However it will be understood that increased doses may be useful as well, particularly if utilized in conjunction with an anti-hyperglycemic agent.

With “S661: 43 amino acid peptide insulin receptor antagonist, SEQ ID NO: 16 (GSLDESFYDWFERQLGGGSGGSSLEEEWAQIQCEVWGRGCPSY), C-terminus is an amide (GSLDESFYDWFERQLGGGSGGSSLEEEWAQIQCEVWGRGCPSY-NH2; cysteine pairing not given here)” the “increase in the percentage of beta cell replication as compared to vehicle” value (pancreatic beta cells [1]) was about 5 fold, the beta cell replication (pancreatic beta cells [2]) was “increased amount of beta cell replication” and the “islet area relative to total pancreas area” value (pancreatic beta cells [2]) was “increased islet area relative to total pancreas area”. For the same substance, the non-beta cell replication (pancreatic beta cells [2]) was “does not increase non-beta cell replication”, the “increase in β-cell replication in comparison to vehicle” value (pancreatic beta cells [3]; S661 0.125 mg/kg s.c. 3 times daily) was 2 fold and the “increase in β-cell replication in comparison to vehicle” value (pancreatic beta cells [3]; S661 1 mg/kg s.c. 3 times daily) was 5 fold. The blood glucose levels [4] was “marked increase in blood glucose levels”.

With “S961: 43 amino acid peptide insulin receptor antagonist, SEQ ID NO: 16 (GSLDESFYDWFERQLGGGSGGSSLEEEWAQIQCEVWGRGCPSY), C-terminus is an acid (GSLDESFYDWFERQLGGGSGGSSLEEEWAQIQCEVWGRGCPSY-OH; cysteine pairing not given here)” the “beta cell replication (Ki67+/insulin+)” value (pancreatic beta cells [5]; treatment for 7 to 10 days) was “induces beta cell replication”, the “beta cell area/pancreas area” value (pancreatic beta cells [5]; treatment for 7 days) was “significant increase” and the “relative expression of TD26 mRNA” value (TD26 (EG624219) mRNA) was “increases”. The blood glucose levels ([6]; increasing doses of S961) was “blood glucose levels increase” and the blood glucose levels ([6]; low doses of S961) was “does not increase blood glucose levels”.
